In data set [1] the test system is Influenza B. Put plainly: microbe, parasite or virus in culture. The data set is classed as cell-based.
Data set [2] can be described thus: Acute toxicity in mice. Further details: species or system ddy male mice. As to conditions: mouse, in vivo, suspended in 5% Arabic gum solution, mortality observed for 7 days. As for the experimental part: Experimental Example 7: Acute Toxicity in Mice
Each compound of the invention was suspended in 5% Arabic gum solution and given orally (p.o.) or intraperitoneally (i.p.) to groups of ten ddy male mice weighed from 24 to 26 g at the dosage volume of 10 ml/kg. […] LD50 was determined according to the method of Wilcoxon and Litchfield.

Data set [3] concerns influenza A0 virus. Put plainly: Protective action against the death of mice infected with influenza A0 virus. Type of data set: in vivo, ICR female mice. As to conditions: for Survival rate: twice a day for 14 days, survivors at 15th day. The text has this:
Experimental Example 2 Protective Action against the Death of Mice. Infected with Influenza A0 Virus,
After the influenza A0 virus was inoculated to groups each -consisting of ten ICR female mice (16 - 18 g) intranasally under light anesthesia with ether, compound of the invention was given orally or intraperitoneally as multiple doses of twice a day starting one hour after infection and continued for 14 days. The result of the treatment was shown as the increase in percentage of survivors at 15th day.

For data set [4], the system named is ECHO. Kind of data set: microbe, parasite or virus in culture. The data set is classed as cell-based.
The nature of data set [5]: Physicochemical properties (qualitative solubility). The conditions noted are these: qualitative solubility in solvents.
Data set [6] has as its system Influenza A1. Put plainly: microbe, parasite or virus in culture. Type of data set: cell-based.
For data set [7], the system named is Parainfluenza Type 3. Kind of data set: microbe, parasite or virus in culture. Type of data set: cell-based. The conditions noted are these: Virus E = Parainfluenza Type 3.
Data set [8] has as its system Coxsackie Type B5. Put plainly: microbe, parasite or virus in culture. The data set is classed as cell-based. The conditions noted are these: Virus G = Coxsackie Type B5.
Data set [9] relates to Influenza A0. Kind of data set: microbe, parasite or virus in culture. The data set is classed as cell-based. As to conditions: Virus A = Influenza A0, MDCK, Vero and HEL cells.
Data set [10] deals with Rhino. Kind of data set: microbe, parasite or virus in culture. Type of data set: cell-based.
The test system of data set [11] is influenza virus B/GL. Type of data set: in vivo, ICR female mice. As to conditions: result in words, oral.
Where [12] appears, read: ip, Intra-peritoneal administration.

≈ marks a conversion by molar mass, not a printed value.

This note sets out measurements from EP0132540A1 (priority 1981, dated 1983).

As a reminder, the LD50 is the dose expected to kill half of the subjects tested. The low end stands for greater toxicity, the high end for lower toxicity. Take `CNS(=O)(=O)c1cc(C(=O)O)ccc1Cl` [Compound 1, 4-chloro-3-methylamino-sulfonylbenzoic acid]: the MIC is 300 µg/mL (≈ 1200 µM) in data set [1]; 300 µg/mL (≈ 1200 µM) in [4]; 300 µg/mL (≈ 1200 µM) in [6]; 300 µg/mL (≈ 1200 µM) in data set [7]; 100 µg/mL (≈ 401 µM) in data set [8]; 30 µg/mL (≈ 120 µM) in data set [9]. Further, the MIC in data set [10] worked out at 300 µg/mL (≈ 1200 µM). Moreover, the results for the 50% lethal dose (LD50) at 168 h in [2] (setting [12]) and in data set [2] (Oral administration) were more than 1000 mg/kg and more than 3000 mg/kg, respectively. In addition, the Survival rate is 40% in data set [3] (intraperitoneal, 100 mg/kg) and 50% in data set [3] (oral, 300 mg/kg). Besides, the “Property (solubility)” value in [5] is “white crystalline powder; insoluble in benzene, hexane; soluble in hot water, methanol”.

Take `CCNS(=O)(=O)c1cc(C(=O)O)ccc1Cl` [Compound 2, 4-chloro-3-ethylamino-sulfonylbenzoic acid]: the MIC stood at 300 µg/mL (≈ 1140 µM) in data set [1]; 300 µg/mL (≈ 1140 µM) in [4]; 300 µg/mL (≈ 1140 µM) in data set [6]; 300 µg/mL (≈ 1140 µM) in data set [7]; 300 µg/mL (≈ 1140 µM) in [8]; 30 µg/mL (≈ 114 µM) in [9]. Further, the MIC in data set [10] was 300 µg/mL (≈ 1140 µM). Besides, the LD50 at 168 h in [2] (setting [12]) was more than 1000 mg/kg; in data set [2] (Oral administration) it was more than 3000 mg/kg. Moreover, the Survival rate in [3] (intraperitoneal, 100 mg/kg) is reported as 40%; in data set [3] (oral, 300 mg/kg), 50%. The “Property (solubility)” value in [5] is reported as “white crystalline powder; insoluble in benzene, hexane; soluble in hot water, methanol”.

As to `CN(C)S(=O)(=O)c1cc(C(=O)O)ccc1Cl` [Compound 3, 4-chloro-3-dimethyl-aminosulfonylbenzoic acid], the MIC in [1] amounted to 300 µg/mL (≈ 1140 µM); in data set [4], 300 µg/mL (≈ 1140 µM); in [6], 300 µg/mL (≈ 1140 µM); in data set [7], 300 µg/mL (≈ 1140 µM); in data set [8], 300 µg/mL (≈ 1140 µM); in [9], 30 µg/mL (≈ 114 µM). In data set [10], this compound came in with an MIC of 300 µg/mL (≈ 1140 µM). Also, the LD50 at 168 h is more than 1000 mg/kg in [2] (setting [12]) and more than 3000 mg/kg in data set [2] (Oral administration). Further, the Survival rate in data set [3] (intraperitoneal, 100 mg/kg) is reported as 40%; in data set [3] (oral, 300 mg/kg), 50%. Besides, the “Property (solubility)” value in data set [5] is recorded as “white crystalline powder; insoluble in benzene, hexane; soluble in hot water, methanol”.

With `CC(C)NS(=O)(=O)c1cc(C(=O)O)ccc1Cl` [Compound 4, 4-chloro-3-isopropyl-aminoslfonylbenzoic acid], the MIC in data set [1] turned out to be 300 µg/mL (≈ 1080 µM); in data set [4] it was 300 µg/mL (≈ 1080 µM); in data set [6], 100 µg/mL (≈ 360 µM); in data set [7], 300 µg/mL (≈ 1080 µM); in [8], 300 µg/mL (≈ 1080 µM); in [9] it was 30 µg/mL (≈ 108 µM). In data set [10], this compound returned an MIC of 300 µg/mL (≈ 1080 µM). Besides, the LD50 at 168 h was more than 1000 mg/kg in data set [2] (setting [12]) and more than 3000 mg/kg in data set [2] (Oral administration). Also, the Survival rate worked out at 40% in data set [3] (intraperitoneal, 100 mg/kg) and 40% in data set [3] (oral, 300 mg/kg). The “Property (solubility)” value in data set [5] was “white crystalline powder; insoluble in benzene, hexane; soluble in hot water, methanol”.

Turning to `O=C(O)c1ccc(Cl)c(S(=O)(=O)Nc2ccccc2)c1` [Compound 5, 3-anilinosulfonyl-4-chlorobenzoic acid], the MIC in data set [1] is 300 µg/mL (≈ 962 µM); in data set [4], 300 µg/mL (≈ 962 µM); in data set [6], 300 µg/mL (≈ 962 µM); in [7], 300 µg/mL (≈ 962 µM); in data set [8] it was 100 µg/mL (≈ 321 µM); in data set [9], 30 µg/mL (≈ 96.2 µM). Also, the MIC in [10] came to 300 µg/mL (≈ 962 µM). Moreover, the LD50 at 168 h in data set [2] (setting [12]) was 968 mg/kg; in data set [2] (Oral administration), more than 3000 mg/kg. Further, the Survival rate amounted to 40% in data set [3] (intraperitoneal, 100 mg/kg) and 40% in data set [3] (oral, 300 mg/kg). Besides, the “Property (solubility)” value in data set [5] is “white crystalline powder; insoluble in benzene, hexane; soluble in hot water, methanol”.

`O=C(O)c1ccc(Cl)c(S(=O)(=O)N2CCOCC2)c1` [Compound 6, 4-chloro-3-morpholino-sulfonylbenzoic acid]: the MIC in [1] was 300 µg/mL (≈ 981 µM); in [4], 100 µg/mL (≈ 327 µM); in data set [6], 300 µg/mL (≈ 981 µM); in data set [7] it was 300 µg/mL (≈ 981 µM); in data set [8] it was 300 µg/mL (≈ 981 µM); in data set [9], 30 µg/mL (≈ 98.1 µM). Besides, the MIC in data set [10] came out at 300 µg/mL (≈ 981 µM). The values for the LD50 at 168 h in data set [2] (setting [12]) and in data set [2] (Oral administration) were more than 1000 mg/kg and more than 3000 mg/kg, respectively. The Survival rate in data set [3] (intraperitoneal, 100 mg/kg) is 50%; in data set [3] (oral, 300 mg/kg), 50%. In [5], the “Property (solubility)” value is given as “white crystalline powder; insoluble in benzene, hexane; soluble in hot water, methanol”.

As for `NS(=O)(=O)c1cc(C(=O)O)c(Cl)cc1Cl` [Compound 7, 5-aminosulfonyl-2,4-dichlorobenzoic acid], the MIC was determined as 100 µg/mL (≈ 370 µM) in data set [1]; 100 µg/mL (≈ 370 µM) in data set [4]; 300 µg/mL (≈ 1110 µM) in [6]; 100 µg/mL (≈ 370 µM) in data set [7]; 100 µg/mL (≈ 370 µM) in [8]; 10 µg/mL (≈ 37 µM) in data set [9]. In data set [10], this compound yielded an MIC of 100 µg/mL (≈ 370 µM). Also, the values for the LD50 at 168 h in [2] (setting [12]) and in [2] (Oral administration) were more than 1000 mg/kg and more than 3000 mg/kg, respectively. In addition, the Survival rate in data set [3] (intraperitoneal, 10 mg/kg) was 40%; in data set [3] (intraperitoneal, 30 mg/kg), 50%; in data set [3] (oral, 30 mg/kg) it was 40%; in data set [3] (oral, 100 mg/kg), 60%. Besides, in data set [3] (result in words, oral or intraperitoneal), the “protective action against death due to the infection” value is “extremely excellent activity”. In addition, the “Property (solubility)” value in data set [5] is on record as “white crystalline powder; insoluble in benzene, hexane; soluble in hot water, methanol”.

For `COC(=O)c1ccc(F)c(S(N)(=O)=O)c1` [Compound 8, 3-aminosulfonyl-4-fluoromethylbenzoate], the figures for the 50% lethal dose (LD50) at 168 h in data set [2] (setting [12]) and in data set [2] (Oral administration) were more than 1000 mg/kg and more than 3000 mg/kg, respectively.

Consider `CC(C)OC(=O)c1ccc(Br)c(S(N)(=O)=O)c1` [Compound 9, 3-aminosulfonyl-4-bromo-isopropylbenzoate], for which the figures for the LD50 at 168 h in data set [2] (setting [12]) and in data set [2] (Oral administration) were more than 1000 mg/kg and more than 3000 mg/kg, respectively.

For `CCCCOC(=O)c1ccc(Br)c(S(N)(=O)=O)c1` [Compound 10, 3-aminosulfonyl-4-bromo-n-butylbenzoate], the values for the LD50 at 168 h in data set [2] (setting [12]) and in [2] (Oral administration) were more than 1000 mg/kg and more than 3000 mg/kg, respectively. Also, in data set [11], the “survival rates of the treated groups as compared with that of the control” value is recorded as “extremely excellent activity”.

On to `C=CCOC(=O)c1cc(S(N)(=O)=O)c(Cl)cc1Cl` [Compound 11, 5-aminosulfonyl-2,4-dichloro-allylbenzoate], for which the results for the median lethal dose (LD50) at 168 h in [2] (setting [12]) and in data set [2] (Oral administration) were more than 1000 mg/kg and more than 3000 mg/kg, respectively.
